According to ChEMBL document CHEMBL2086335, “Three new 12-carbamoylated streptothricins from Streptomyces sp. I08A 1776” (2012):
Converted amounts (≈) assume the structure as drawn.

How the values were obtained:
Format in all cases: functional
[1] = test system: Mycobacterium tuberculosis; assay: Antibacterial activity against Mycobacterium tuberculosis H37Rv by microbroth dilution method
[2] = test system: Staphylococcus aureus; assay: Antibacterial activity against Staphylococcus aureus ATCC 25923 by microbroth dilution method
[3] = test system: Enterococcus faecalis; assay: Antibacterial activity against Enterococcus faecalis ATCC 29212 by microbroth dilution method
[4] = test system: Bacillus subtilis; assay: Antibacterial activity against Bacillus subtilis ATCC 6633 by microbroth dilution method
[5] = test system: Mycolicibacterium smegmatis; assay: Antibacterial activity against Mycobacterium smegmatis MC2 155 by microbroth dilution method; conditions: str. MC2 155
[6] = test system: Pseudomonas aeruginosa; assay: Antibacterial activity against Pseudomonas aeruginosa ATCC 27853 by microbroth dilution method
[7] = test system: Morganella morganii; assay: Antibacterial activity against multidrug-resistant Morganella morganii 07-09 by microbroth dilution method
[8] = test system: Escherichia coli; assay: Antibacterial activity against Escherichia coli ATCC 25922 by microbroth dilution method
[9] = test system: Candida albicans; assay: Antifungal activity against Candida albicans ATCC 10231 by microbroth dilution method

NNC(=O)c1ccncc1 [ISONIAZID]
MIC [1]: 0.0625 µg/mL (≈ 0.456 µM)

NCCC[C@H](N)CC(=O)NCCC[C@H](N)CC(=O)N[C@@H]1[C@H](O)[C@@H](OC(N)=O)[C@@H](CO)O[C@H]1NC1=N[C@@H]2C(=O)NC[C@@H](O)[C@H]2N1 [STREPTOTHRICIN E]
MIC [2]: 4 µg/mL (≈ 6.34 µM) | MIC [3]: 64 µg/mL (≈ 101 µM) | MIC [4]: 1 µg/mL (≈ 1.59 µM) | MIC [1]: 1 µg/mL (≈ 1.59 µM) | MIC [5]: 4 µg/mL (≈ 6.34 µM) | MIC [6]: 64 µg/mL (≈ 101 µM) | MIC [7]: 4 µg/mL (≈ 6.34 µM) | MIC [8]: 16 µg/mL (≈ 25.4 µM) | MIC [9]: 1 µg/mL (≈ 1.59 µM)

CC(=O)N[C@@H](CCCNC(=O)C[C@@H](N)CCCNC(=O)C[C@@H](N)CCCN)CC(=O)N[C@@H]1[C@H](O)[C@@H](O)[C@@H](COC(N)=O)O[C@H]1/N=C1\N[C@H]([C@H](O)CN)[C@@H](C(=O)O)N1
MIC [2]: > 256 µg/mL | MIC [3]: > 256 µg/mL | MIC [4]: > 256 µg/mL | MIC [1]: > 256 µg/mL | MIC [5]: > 256 µg/mL | MIC [6]: > 256 µg/mL | MIC [7]: > 256 µg/mL | MIC [8]: > 256 µg/mL | MIC [9]: > 256 µg/mL

CC(=O)N[C@@H](CCCNC(=O)C[C@@H](N)CCCNC(=O)C[C@@H](N)CCCN)CC(=O)N[C@@H]1[C@H](O)[C@@H](OC(N)=O)[C@@H](CO)O[C@H]1/N=C1\N[C@H]([C@H](O)CN)[C@@H](C(=O)O)N1
MIC [2]: > 256 µg/mL | MIC [3]: > 256 µg/mL | MIC [4]: 64 µg/mL (≈ 78.2 µM) | MIC [1]: > 256 µg/mL | MIC [5]: > 256 µg/mL | MIC [6]: > 256 µg/mL | MIC [7]: > 256 µg/mL | MIC [8]: 64 µg/mL (≈ 78.2 µM) | MIC [9]: > 256 µg/mL

CC(=O)N[C@@H](CCCNC(=O)C[C@@H](N)CCCNC(=O)C[C@@H](N)CCCN)CC(=O)N[C@@H]1[C@H](O)[C@@H](O)[C@@H](COC(N)=O)O[C@H]1/N=C1\N[C@@H]2[C@H](O)CNC(=O)[C@H]2N1
MIC [2]: > 256 µg/mL | MIC [3]: > 256 µg/mL | MIC [4]: 64 µg/mL (≈ 79.9 µM) | MIC [1]: > 256 µg/mL | MIC [5]: > 256 µg/mL | MIC [6]: > 256 µg/mL | MIC [7]: > 256 µg/mL | MIC [8]: 64 µg/mL (≈ 79.9 µM) | MIC [9]: > 256 µg/mL

CC(=O)N[C@@H](CCCNC(=O)C[C@@H](N)CCCN)CC(=O)N[C@@H]1[C@H](O)[C@@H](O)[C@@H](COC(N)=O)O[C@H]1/N=C1\N[C@@H]2[C@H](O)CNC(=O)[C@H]2N1
MIC [2]: > 256 µg/mL | MIC [3]: > 256 µg/mL | MIC [4]: 128 µg/mL (≈ 190 µM) | MIC [1]: > 256 µg/mL | MIC [5]: > 256 µg/mL | MIC [6]: > 256 µg/mL | MIC [7]: > 256 µg/mL | MIC [8]: > 256 µg/mL | MIC [9]: > 256 µg/mL

C[C@H]1COc2c(N3CCN(C)CC3)c(F)cc3c(=O)c(C(=O)O)cn1c23.C[C@H]1COc2c(N3CCN(C)CC3)c(F)cc3c(=O)c(C(=O)O)cn1c23.O [LEVOFLOXACIN]
MIC [2]: 0.12 µg/mL | MIC [3]: 0.5 µg/mL | MIC [4]: 0.12 µg/mL | MIC [1]: 0.5 µg/mL | MIC [5]: 1 µg/mL | MIC [6]: 0.25 µg/mL | MIC [7]: 16 µg/mL | MIC [9]: > 256 µg/mL

CO[C@H]1/C=C/O[C@@]2(C)Oc3c(C)c(O)c4c(O)c(c(/C=N/N5CCN(C)CC5)c(O)c4c3C2=O)NC(=O)/C(C)=C\C=C\[C@H](C)[C@H](O)[C@@H](C)[C@@H](O)[C@@H](C)[C@H](OC(C)=O)[C@@H]1C [RIFAMPIN]
MIC [1]: 0.0625 µg/mL (≈ 0.0759 µM)

NCCC[C@H](N)CC(=O)NCCC[C@H](N)CC(=O)N[C@@H]1[C@H](O)[C@@H](O)[C@@H](COC(N)=O)O[C@H]1/N=C1\N[C@@H]2[C@H](O)CNC(=O)[C@H]2N1
MIC [2]: > 256 µg/mL | MIC [3]: > 256 µg/mL | MIC [4]: 16 µg/mL (≈ 25.4 µM) | MIC [1]: 16 µg/mL (≈ 25.4 µM) | MIC [5]: 64 µg/mL (≈ 101 µM) | MIC [6]: > 256 µg/mL | MIC [7]: > 256 µg/mL | MIC [8]: > 256 µg/mL | MIC [9]: 32 µg/mL (≈ 50.7 µM)
